Source: ChEMBL document CHEMBL1201862, “PubChem BioAssay data set” (2004)
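Dose response: 5 concentrations. Exposure: 48 h. Format: 96-well plates. Endpoint: linear interpolation; highest concentration if not reached. Abbreviation: GI50, concentration required for 50% inhibition of growth.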 Activity calls are given as the source filed them. Rule as the data show it: active = GI50 up to about 1.1 µM and inactive = higher.

How the values were obtained:
Test in all cases: NCI-60 cell line screen, 48 h
[1] = test system: SNB-19
[2] = test system: RPMI-8226
[3] = test system: HCC 2998
[4] = test system: MDA-N
[5] = test system: HOP-92
[6] = test system: OVCAR-3
[7] = test system: OVCAR-4
[8] = test system: UO-31
[9] = test system: A549
[10] = test system: SW-620
[11] = test system: U-251
[12] = test system: NCI-H460
[13] = test system: CCRF-CEM
[14] = test system: SN12C
[15] = test system: SK-MEL-5
[16] = test system: BT-549
[17] = test system: HT-29
[18] = test system: MDA-MB-435
[19] = test system: LOX IMVI
[20] = test system: SK-OV-3
[21] = test system: NCI-H23
[22] = test system: UACC-257
[23] = test system: SF-268
[24] = test system: IGROV-1
[25] = test system: K562
[26] = test system: A498
[27] = test system: SF-295
[28] = test system: 786-0
[29] = test system: DU-145
[30] = test system: SK-MEL-2
[31] = test system: HCT-116
[32] = test system: RXF 393
[33] = test system: MCF7
[34] = test system: ACHN
[35] = test system: M14
[36] = test system: HCT-15
[37] = test system: SF-539
[38] = test system: MDA-MB-231
[39] = test system: MOLT-4
[40] = test system: T47D
[41] = test system: NCI/ADR-RES
[42] = test system: OVCAR-8
[43] = test system: EKVX
[44] = test system: HL-60
[45] = test system: KM12
[46] = test system: SK-MEL-28
[47] = test system: PC-3
[48] = test system: SNB-75
[49] = test system: OVCAR-5
[50] = test system: Hs-578T
[51] = test system: COLO 205
[52] = test system: Malme-3M
[53] = test system: UACC-62
[54] = test system: NCI-H522
[55] = test system: TK-10
[56] = test system: CAKI-1
[57] = test system: NCI-H226
[58] = test system: HOP-62

Measured: GI50

O=C1c2cccc3cccc(c23)C(=O)N1O
inactive: [1] 95.1 µM | [2] 45.6 µM | [3] 75 µM | [4] 91.6 µM | [5] 25.7 µM | [6] 57.4 µM | [7] 57.8 µM | [8] 70.1 µM | [9] 77.1 µM | [10] 14.5 µM | [11] 28.6 µM | [12] 29.2 µM | [13] 18.5 µM | [14] 54.1 µM | [15] > 100 µM | [16] > 100 µM | [17] 51.8 µM | [18] > 100 µM | [19] 53.2 µM | [20] 68.2 µM | [21] 74.8 µM | [22] > 100 µM | [23] 70.5 µM | [24] 20.2 µM | [25] 36.7 µM | [26] > 100 µM | [27] 34.2 µM | [28] 49.9 µM | [29] 53.6 µM | [30] 86.5 µM | [31] 27.4 µM | [32] 24 µM | [33] 37.5 µM | [34] 71.8 µM | [35] 51.9 µM | [37] 50.9 µM | [38] > 100 µM | [39] 69.7 µM | [40] > 100 µM | [41] > 100 µM | [42] 56.6 µM | [43] > 100 µM | [44] > 100 µM | [45] 45.4 µM | [46] > 100 µM | [47] 76.2 µM | [48] 27.7 µM | [49] > 100 µM | [50] 53 µM | [51] > 100 µM | [52] > 100 µM | [53] > 100 µM | [54] 37.2 µM | [55] > 100 µM | [56] 49.8 µM
40.9 µM: [36]

O=C1N/C(=N/N=C/C(O)C(O)C(O)C(O)CO)N/C1=C\c1cccs1 (stereo not drawn)
inactive: [1] > 100 µM | [2] > 100 µM | [3] > 100 µM | [4] > 100 µM | [5] > 100 µM | [6] > 100 µM | [7] > 100 µM | [9] 94.4 µM | [10] > 100 µM | [11] > 100 µM | [12] > 100 µM | [13] > 100 µM | [14] > 100 µM | [15] > 100 µM | [16] > 100 µM | [17] > 100 µM | [18] > 100 µM | [19] > 100 µM | [20] > 100 µM | [21] > 100 µM | [22] > 100 µM | [57] > 100 µM | [23] > 100 µM | [24] > 100 µM | [25] > 100 µM | [26] 73.1 µM | [27] > 100 µM | [28] > 100 µM | [29] > 100 µM | [30] > 100 µM | [31] > 100 µM | [32] > 100 µM | [33] > 100 µM | [34] > 100 µM | [35] > 100 µM | [37] > 100 µM | [38] > 100 µM | [39] > 100 µM | [40] 93.8 µM | [41] > 100 µM | [42] > 100 µM | [43] 87.1 µM | [44] > 100 µM | [45] > 100 µM | [58] > 100 µM | [46] > 100 µM | [47] > 100 µM | [48] > 100 µM | [49] > 100 µM | [50] > 100 µM | [51] > 100 µM | [52] > 100 µM | [53] > 100 µM | [54] 88.5 µM | [55] > 100 µM | [56] > 100 µM
> 100 µM: [36]
